Data on 25 molecules can be found in US20120101093A1, “SUBSTITUTED IMIDAZO[1,2-A]PYRIDINE DERIVATIVES, PHARMACEUTICAL COMPOSITIONS, AND METHODS OF USE AS BETA-SECRETASE INHIBITORS” (HIGH POINT PHARMACEUTICALS, LLC, priority 2009, published 2012).

The target of one test is T1, BACE-1 enzyme (Homo sapiens, UniProt P56817).
T1 construct: purchased R & D Systems 931AS
Put plainly: BACE Fluorescence Resonance Energy Transfer (FRET) Assay. To be noted: pH 4-4.5, 30 min pre-incubation, about 1.5 hours reaction. Type of test: biochemical. The method in brief: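 Fluorescence (ex 540, em 585 nm) after ~1.5 h room-temperature cleavage of a quenched rhodamine peptide tracks BACE-1 activity. Enzyme and compound first sit 30 min in pH 4-4.5 acetate buffer with CHAPS, Triton X-100, EDTA, 7.5% DMSO. Values given as IC50 or % inhibition.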

Test [1] has as its system Aβ1-40 secreted from HEK293 cells stably expressing wildtype human APP695 protein (HEK-APPwt cells). Nature of the test: Aβ Cell Based Assay (Aβ1-40 secretion, ELISA). To be noted: Homo sapiens, HEK293, 6 h, 6 hours incubation, reduction of Aβ1-40 secretion. Summed up:
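Cells in DMEM with 2% FBS exposed to ten compound concentrations for 6 h at 37 °C. Secreted Aβ1-40 in supernatant quantified by sandwich ELISA (82E1 capture, TMB, OD450). EC50 from percent inhibition, DAPT defining 100% inhibition, non-linear fit.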
A general note: In an ELISA, binding on a coated surface is turned into a signal by an enzyme label.

T1 sequence (P56817 46-457 limits assumed): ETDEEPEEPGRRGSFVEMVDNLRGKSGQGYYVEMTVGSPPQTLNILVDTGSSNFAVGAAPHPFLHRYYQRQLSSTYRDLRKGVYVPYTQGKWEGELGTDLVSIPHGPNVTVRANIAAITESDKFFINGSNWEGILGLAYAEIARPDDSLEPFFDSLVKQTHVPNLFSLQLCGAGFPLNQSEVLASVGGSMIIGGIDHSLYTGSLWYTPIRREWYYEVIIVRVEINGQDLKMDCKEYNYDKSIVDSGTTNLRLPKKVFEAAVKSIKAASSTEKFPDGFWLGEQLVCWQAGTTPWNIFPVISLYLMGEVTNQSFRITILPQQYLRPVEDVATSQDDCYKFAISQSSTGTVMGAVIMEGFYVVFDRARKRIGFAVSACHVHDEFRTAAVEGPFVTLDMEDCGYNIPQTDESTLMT

Take `Cc1cccc2nc(C(=O)Nc3nc4cc(-c5cccc(C(F)(F)F)c5O)ccc4[nH]3)cn12` [Example 109, 5-Methyl-imidazo[1,2-a]pyridine-2-carboxylic acid [5-(2-hydroxy-3-trifluoromethyl-phenyl)-1H-benzoimidazol-2-yl]-amide]: on BACE-1 enzyme, the IC50 – broadly, the concentration needed to halve the response being measured – was determined as 0.87 µM. Also, the EC50 (in general, the concentration at which the effect is half-maximal) in test [1] was found to be 4.85 µM.
`COc1c(-c2ccc3[nH]c(NC(=O)c4cn5c(C)cccc5n4)nc3c2)cccc1C(F)(F)F` [Example 110, 5-Methyl-imidazo[1,2-a]pyridine-2-carboxylic acid [5-(2-methoxy-3-trifluoromethyl-phenyl)-1H-benzoimidazol-2-yl]-amide]: the half-maximal inhibitory concentration (IC50) against BACE-1 enzyme worked out at 0.4 µM. The molecule also returned an EC50 in test [1] of 0.75 µM.
`O=C(Nc1nc2cc(-c3cccc(C(F)(F)F)c3)ccc2[nH]1)c1cn2cc(F)ccc2n1` [Example 112, 6-Fluoro-imidazo[1,2-a]pyridine-2-carboxylic acid [5-(3-trifluoromethyl-phenyl)-1H-benzoimidazol-2-yl]-amide] gave an IC50 against BACE-1 enzyme of 0.43 µM. For the same molecule, the 50% effective concentration (EC50) in test [1] came out at 1.94 µM.
The matching figures for `O=C(Nc1nc2cc(-c3cccc(C(F)(F)F)c3)ccc2[nH]1)c1cn2ccccc2n1` [Example 115, Imidazo[1,2-a]pyridine-2-carboxylic acid [5-(3-trifluoromethyl-phenyl)-1H-benzoimidazol-2-yl]-amide]: 0.37 µM and 1.43 µM.
`O=C(Nc1nc2cc(-c3cccc(OC(F)(F)F)c3)ccc2[nH]1)c1cn2ccccc2n1` [Example 117, Imidazo[1,2-a]pyridine-2-carboxylic acid [5-(3-trifluoromethoxy-phenyl)-1H-benzoimidazol-2-yl]-amide]: half-maximal inhibition at BACE-1 enzyme (IC50) was put at 0.54 µM. A half-maximal response in test [1] (EC50) required 3.67 µM.
`Cc1cccc2nc(C(=O)Nc3nc4cc(C5CCC(C)CC5)ccc4[nH]3)cn12` (centres unmarked) [Example 119, 5-Methyl-imidazo[1,2-a]pyridine-2-carboxylic acid [5-(4-methyl-cyclohexyl)-1H-benzoimidazol-2-yl]-amide] had a 50% inhibitory concentration (IC50) at BACE-1 enzyme of 0.27 µM. Also, in test [1], the EC50 worked out at 1.82 µM.
At BACE-1 enzyme, `CN(C)c1cccc2nc(C(=O)Nc3nc4cc(-c5cccc(C(F)(F)F)c5)ccc4[nH]3)cn12` [Example 121, 5-Dimethylamino-imidazo[1,2-a]pyridine-2-carboxylic acid [5-(3-trifluoromethyl-phenyl)-1H-benzoimidazol-2-yl]-amide] registered a 50% inhibitory concentration (IC50) of 0.67 µM. Also, in test [1], a half-maximal effect (EC50) was put at 0.37 µM.
Turning to `COCCNc1cccc2nc(C(=O)Nc3nc4cc(-c5cccc(C(F)(F)F)c5)ccc4[nH]3)cn12` [Example 122, 5-(2-Methoxy-ethylamino)-imidazo[1,2-a]pyridine-2-carboxylic acid [5-(3-trifluoromethyl-phenyl)-1H-benzoimidazol-2-yl]-amide], the half-inhibitory concentration (IC50) at BACE-1 enzyme stood at 0.54 µM. The molecule further showed an EC50 in test [1] of 1.5 µM.
As for `O=C(Nc1nc2cc(-c3cccc(C(F)(F)F)c3)ccc2[nH]1)c1cn2c(N3CCOCC3)cccc2n1` [Example 123, 5-Morpholin-4-yl-imidazo[1,2-a]pyridine-2-carboxylic acid [5-(3-trifluoromethyl-phenyl)-1H-benzoimidazol-2-yl]-amide], the IC50 on BACE-1 enzyme came out at 2.11 µM. For the same molecule, in test [1], a half-maximal effect (EC50) was put at 1.11 µM.
The matching figures for `COc1ccc(-c2ccc3[nH]c(NC(=O)c4cn5c(N6CCN(C)CC6)cccc5n4)nc3c2)cc1C(F)(F)F` [Example 124, 5-(4-Methyl-piperazin-1-yl)-imidazo[1,2-a]pyridine-2-carboxylic acid [5-(4-methoxy-3-trifluoromethyl-phenyl)-1H-benzoimidazol-2-yl]-amide]: 0.55 µM and 3.13 µM.
In the same order, the values of `COc1cc(F)cn2cc(C(=O)Nc3nc4cc(-c5cc(F)cc(Cl)c5)ccc4[nH]3)nc12` [Example 126, 6-Fluoro-8-methoxy-imidazo[1,2-a]pyridine-2-carboxylic acid [5-(3-chloro-5-fluoro-phenyl)-1H-benzoimidazol-2-yl]-amide] are 0.22 µM and 1.58 µM.
In turn, `COc1cc(F)cn2cc(C(=O)Nc3nc4cc(-c5cccc(C(F)(F)F)c5)ccc4[nH]3)nc12` [Example 127, 6-Fluoro-8-methoxy-imidazo[1,2-a]pyridine-2-carboxylic acid [5-(3-trifluoromethyl-phenyl)-1H-benzoimidazol-2-yl]-amide] displayed an IC50 on BACE-1 enzyme of 0.45 µM. Besides, the EC50 in test [1] is 1.73 µM.
In turn, `O=C(Nc1nc2cc(-c3cccc(C(F)(F)F)c3)ccc2[nH]1)c1cn2c(CO)cccc2n1` [Example 161, 5-Hydroxymethyl-imidazo[1,2-a]pyridine-2-carboxylic acid [5-(3-trifluoromethyl-phenyl)-1H-benzoimidazol-2-yl]-amide] displayed an IC50 at BACE-1 enzyme of 0.52 µM. The same molecule had a 50% effective concentration (EC50) in test [1] of 2.87 µM.
Molecule `COCCNCc1cccc2nc(C(=O)Nc3nc4cc(-c5cccc(C(F)(F)F)c5)ccc4[nH]3)cn12` [Example 162, 5-[(2-Methoxy-ethylamino)-methyl]-imidazo[1,2-a]pyridine-2-carboxylic acid [5-(3-trifluoromethyl-phenyl)-1H-benzoimidazol-2-yl]-amide] came in with an IC50 against BACE-1 enzyme of 0.23 µM. The molecule also returned an EC50 in test [1] of 0.98 µM.
Molecule `CN(C)Cc1cccc2nc(C(=O)Nc3nc4cc(-c5cccc(C(F)(F)F)c5)ccc4[nH]3)cn12` [Example 163, 5-Dimethylaminomethyl-imidazo[1,2-a]pyridine-2-carboxylic acid [5-(3-trifluoromethyl-phenyl)-1H-benzoimidazol-2-yl]-amide] gave an IC50 at BACE-1 enzyme of 0.36 µM. Further, it took 1.11 µM to reach a half-maximal effect in test [1] (EC50).
On BACE-1 enzyme, `O=C(Nc1nc2cc(-c3cccc(C(F)(F)F)c3)ccc2[nH]1)c1cn2c(CN3CCOCC3)cccc2n1` [Example 165, 5-Morpholin-4-ylmethyl-imidazo[1,2-a]pyridine-2-carboxylic acid [5-(3-trifluoromethyl-phenyl)-1H-benzoimidazol-2-yl]-amide] registered an IC50 of 0.42 µM. In test [1], the concentration giving a half-maximal response (EC50) was determined as 1.88 µM.
For `O=C(Nc1nc2cc(-c3cccc(C(F)(F)F)c3)ccc2[nH]1)c1cn2c(CN3CCC(O)CC3)cccc2n1` [Example 167, 5-(4-Hydroxy-piperidin-1-ylmethyl)-imidazo[1,2-a]pyridine-2-carboxylic acid [5-(3-trifluoromethyl-phenyl)-1H-benzoimidazol-2-yl]-amide], the midpoint of inhibition against BACE-1 enzyme, the IC50, lay at 0.77 µM. The molecule also had a concentration for a half-maximal effect (EC50) in test [1] of 1.54 µM.
In the case of `O=C(Nc1nc2cc(-c3cccc(C(F)(F)F)c3)ccc2[nH]1)c1cn2c(CNCCN3CCOCC3)cccc2n1` [Example 169, 5-[(2-Morpholin-4-yl-ethylamino)-methyl]-imidazo[1,2-a]pyridine-2-carboxylic acid [5-(3-trifluoromethyl-phenyl)-1H-benzoimidazol-2-yl]-amide], inhibition on BACE-1 enzyme was half-maximal at 0.42 µM (IC50). Further, the 50% effective concentration (EC50) in test [1] turned out to be 5.23 µM.
Turning to `CNCc1cccc2nc(C(=O)Nc3nc4cc(-c5cccc(C(F)(F)F)c5)ccc4[nH]3)cn12` [Example 170, 5-Methylaminomethyl-imidazo[1,2-a]pyridine-2-carboxylic acid [5-(3-trifluoromethyl-phenyl)-1H-benzoimidazol-2-yl]-amide], on BACE-1 enzyme, it took 0.47 µM to reach half-maximal inhibition (IC50). In test [1], this molecule returned a concentration giving a half-maximal response (EC50) of 2.48 µM.
Turning to `O=C(Nc1nc2cc(-c3cccc(C(F)(F)F)c3)ccc2[nH]1)c1cn2c(CNCCCO)cccc2n1` [Example 171, 5-[(3-Hydroxy-propylamino)-methyl]-imidazo[1,2-a]pyridine-2-carboxylic acid [5-(3-trifluoromethyl-phenyl)-1H-benzoimidazol-2-yl]-amide], the concentration for half-maximal inhibition (IC50) on BACE-1 enzyme stood at 0.71 µM. The concentration giving a half-maximal response (EC50) in test [1] stood at 4.26 µM.
With `CC(C)(C)NCc1cccc2nc(C(=O)Nc3nc4cc(-c5cccc(C(F)(F)F)c5)ccc4[nH]3)cn12` [Example 172, 5-(tert-Butylamino-methyl)-imidazo[1,2-a]pyridine-2-carboxylic acid [5-(3-trifluoromethyl-phenyl)-1H-benzoimidazol-2-yl]-amide], the half-maximal inhibitory concentration (IC50) against BACE-1 enzyme is 0.31 µM. Further, the response in test [1] was half-maximal at 1.92 µM (EC50).
At BACE-1 enzyme, `COCCCNCc1cccc2nc(C(=O)Nc3nc4cc(-c5cccc(C(F)(F)F)c5)ccc4[nH]3)cn12` [Example 174, 5-[(3-Methoxy-propylamino)-methyl]-imidazo[1,2-a]pyridine-2-carboxylic acid [5-(3-trifluoromethyl-phenyl)-1H-benzoimidazol-2-yl]-amide] displayed an IC50 of 0.93 µM. This molecule also gave a concentration giving a half-maximal response (EC50) in test [1] of 4.4 µM.
At BACE-1 enzyme, `CC(C)CNCc1ccc2nc(C(=O)Nc3nc4cc(-c5cccc(C(F)(F)F)c5)ccc4[nH]3)cn2c1` [Example 176, 6-(Isobutylamino-methyl)-imidazo[1,2-a]pyridine-2-carboxylic acid [5-(3-trifluoromethyl-phenyl)-1H-benzoimidazol-2-yl]-amide] registered an IC50 of 0.37 µM. The molecule further returned a 50% effective concentration (EC50) in test [1] of 3.91 µM.
At BACE-1 enzyme, `O=C(Nc1nc2cc(-c3cccc(C(F)(F)F)c3)ccc2[nH]1)c1cn2cc(CO)ccc2n1` [Example 177, 6-Hydroxymethyl-imidazo[1,2-a]pyridine-2-carboxylic acid [5-(3-trifluoromethyl-phenyl)-1H-benzoimidazol-2-yl]-amide] came in with an IC50 of 0.3 µM. The EC50 in test [1] worked out at 1.03 µM.
Molecule `O=C(Nc1nc2cc(-c3cccc(C(F)(F)F)c3)ccc2[nH]1)c1cn2cc(CN3CCCC3)ccc2n1` [Example 179, 6-Pyrrolidin-1-ylmethyl-imidazo[1,2-a]pyridine-2-carboxylic acid [5-(3-trifluoromethyl-phenyl)-1H-benzoimidazol-2-yl]-amide] returned an IC50 against BACE-1 enzyme of 0.55 µM. In test [1], a half-maximal effect (EC50) was put at 4.74 µM.
